# Test system: 885512-296-R-J2-PDC complex spheroid viability
# Test: Anticancer human tumor 885512-296-R-J2-PDC patient-derived breast carcinoma cell line growth inhibition [GQUAD]
# Settings: for IC50: curve of first compound; for viability, T/C: stronger effect = lower value
# Method in brief: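 Tumor cells were grown as complex spheroids with HUVEC endothelial cells and mesenchymal stem cells as stroma. G-quadruplex stabilizers were combined with targeted agents over half-log dilutions from near the clinical Cmax, or from 10 microM.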
# [1] = second compound 0.0316 µM, first compound 0.0316 µM
# [2] = second compound 0.0316 µM, first compound 0.1 µM
# [3] = second compound 0.0316 µM, first compound 0.316 µM
# [4] = second compound 0.0316 µM, first compound 1 µM
# [5] = second compound 0.0316 µM, first compound 3.16 µM
# [6] = second compound 0.0316 µM, first compound 10 µM
# [7] = second compound 0.1 µM, first compound 0.0316 µM
# [8] = second compound 0.1 µM, first compound 0.1 µM
# [9] = second compound 0.1 µM, first compound 0.316 µM
# [10] = second compound 0.1 µM, first compound 1 µM
# [11] = second compound 0.1 µM, first compound 3.16 µM
# [12] = second compound 0.1 µM, first compound 10 µM
# [13] = second compound 0.316 µM, first compound 0.0316 µM
# [14] = second compound 0.316 µM, first compound 0.1 µM
# [15] = second compound 0.316 µM, first compound 0.316 µM
# [16] = second compound 0.316 µM, first compound 1 µM
# [17] = second compound 0.316 µM, first compound 3.16 µM
# [18] = second compound 0.316 µM, first compound 10 µM
# [19] = second compound 1 µM, first compound 0.0316 µM
# [20] = second compound 1 µM, first compound 0.1 µM
# [21] = second compound 1 µM, first compound 0.316 µM
# [22] = second compound 1 µM, first compound 1 µM
# [23] = second compound 1 µM, first compound 3.16 µM
# [24] = second compound 1 µM, first compound 10 µM
# [25] = second compound 3.16 µM, first compound 0.0316 µM
# [26] = second compound 3.16 µM, first compound 0.1 µM
# [27] = second compound 3.16 µM, first compound 0.316 µM
# [28] = second compound 3.16 µM, first compound 1 µM
# [29] = second compound 3.16 µM, first compound 3.16 µM
# [30] = second compound 3.16 µM, first compound 10 µM
# [31] = second compound 10 µM, first compound 0.0316 µM
# [32] = second compound 10 µM, first compound 0.1 µM
# [33] = second compound 10 µM, first compound 0.316 µM
# [34] = second compound 10 µM, first compound 1 µM
# [35] = second compound 10 µM, first compound 3.16 µM
# [36] = second compound 10 µM, first compound 10 µM
# 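Note: spheroids exposed to the compounds for one week.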
# 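Throughout, for viability, T/C: percent of tumor spheroid viability relative to DMSO vehicle control wells.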
smiles,measurement,setting,value
CC1COCCN1c1cc(C2(O)CC3CCC(C2)O3)c2cnn(-c3ccn[nH]3)c2n1 (stereo not drawn) + Cc1[nH]c2ccc(F)cc2c1-c1nc2c3cccnc3c3ncccc3c2[nH]1,IC50,second compound 0.0316 µM,< 31.6 nM
same,IC50,second compound 0.1 µM,< 31.6 nM
same,IC50,second compound 0.316 µM,< 31.6 nM
same,IC50,second compound 1 µM,< 31.6 nM
same,IC50,second compound 3.16 µM,< 31.6 nM
same,IC50,second compound 10 µM,< 31.6 nM
same,"viability, T/C",[1],34.7%
same,"viability, T/C",[2],5.25%
same,"viability, T/C",[3],3.32%
same,"viability, T/C",[4],4.26%
same,"viability, T/C",[5],6.56%
same,"viability, T/C",[6],9.72%
same,"viability, T/C",[7],29.1%
same,"viability, T/C",[8],4.51%
same,"viability, T/C",[9],2.65%
same,"viability, T/C",[10],4.14%
same,"viability, T/C",[11],6.29%
same,"viability, T/C",[12],8.64%
same,"viability, T/C",[13],14.5%
same,"viability, T/C",[14],3.01%
same,"viability, T/C",[15],3.13%
same,"viability, T/C",[16],3.89%
same,"viability, T/C",[17],7.17%
same,"viability, T/C",[18],8.72%
same,"viability, T/C",[19],3.34%
same,"viability, T/C",[20],3.2%
same,"viability, T/C",[21],2.99%
same,"viability, T/C",[22],3.85%
same,"viability, T/C",[23],7.13%
same,"viability, T/C",[24],4.46%
same,"viability, T/C",[25],1.99%
same,"viability, T/C",[26],1.52%
same,"viability, T/C",[27],2.56%
same,"viability, T/C",[28],3.64%
same,"viability, T/C",[29],4.56%
same,"viability, T/C",[30],3.61%
same,"viability, T/C",[31],1.09%
same,"viability, T/C",[32],1.19%
same,"viability, T/C",[33],1.76%
same,"viability, T/C",[34],2.85%
same,"viability, T/C",[35],4.02%
same,"viability, T/C",[36],3.55%
COc1ccc([C@@H](O)c2cc(-c3ncnc4cc(N5CCOCC5)ccc34)c(F)cc2Cl)nn1 + Cc1cnc(CNC(=O)c2c(=O)c3ccc(N4CCCN(C)CC4)nc3n3c2sc2ccccc23)cn1,IC50,second compound 0.0316 µM,274 nM
same,IC50,second compound 0.1 µM,125 nM
same,IC50,second compound 0.316 µM,< 31.6 nM
same,IC50,second compound 1 µM,< 31.6 nM
same,IC50,second compound 3.16 µM,< 31.6 nM
same,IC50,second compound 10 µM,< 31.6 nM
same,"viability, T/C",[1],93.6%
same,"viability, T/C",[2],73.1%
same,"viability, T/C",[3],50%
same,"viability, T/C",[4],25.6%
same,"viability, T/C",[5],32%
same,"viability, T/C",[6],29.4%
same,"viability, T/C",[7],67.1%
same,"viability, T/C",[8],54.7%
same,"viability, T/C",[9],28.2%
same,"viability, T/C",[10],30%
same,"viability, T/C",[11],33.1%
same,"viability, T/C",[12],29.2%
same,"viability, T/C",[13],26.1%
same,"viability, T/C",[14],21.2%
same,"viability, T/C",[15],24.2%
same,"viability, T/C",[16],24.6%
same,"viability, T/C",[17],24.8%
same,"viability, T/C",[18],23.8%
same,"viability, T/C",[19],21.8%
same,"viability, T/C",[20],26.6%
same,"viability, T/C",[21],21.9%
same,"viability, T/C",[22],24.3%
same,"viability, T/C",[23],29.9%
same,"viability, T/C",[24],18.9%
same,"viability, T/C",[25],24.8%
same,"viability, T/C",[26],25.4%
same,"viability, T/C",[27],25.1%
same,"viability, T/C",[28],22.7%
same,"viability, T/C",[29],23.2%
same,"viability, T/C",[30],17.2%
same,"viability, T/C",[31],0.11%
same,"viability, T/C",[32],0.2%
same,"viability, T/C",[33],0.17%
same,"viability, T/C",[34],0.15%
same,"viability, T/C",[35],0.18%
same,"viability, T/C",[36],0.19%
COc1cccc2c1C(=O)c1c(O)c3c(c(O)c1C2=O)CC(O)(C(=O)CO)CC3OC1CC(N)C(O)C(C)O1 (stereo not drawn) + Cc1[nH]c2ccc(F)cc2c1-c1nc2c3cccnc3c3ncccc3c2[nH]1,IC50,second compound 0.0316 µM,89.6 nM
same,IC50,second compound 0.1 µM,84.1 nM
same,IC50,second compound 0.316 µM,81.9 nM
same,IC50,second compound 1 µM,58 nM
same,IC50,second compound 3.16 µM,< 31.6 nM
same,IC50,second compound 10 µM,< 31.6 nM
same,"viability, T/C",[1],96.2%
same,"viability, T/C",[2],41.8%
same,"viability, T/C",[3],25.3%
same,"viability, T/C",[4],9.04%
same,"viability, T/C",[5],0.5%
same,"viability, T/C",[6],2.46%
same,"viability, T/C",[7],101%
same,"viability, T/C",[8],36.4%
same,"viability, T/C",[9],23.9%
same,"viability, T/C",[10],10.9%
same,"viability, T/C",[11],0.36%
same,"viability, T/C",[12],3.62%
same,"viability, T/C",[13],85.5%
same,"viability, T/C",[14],39.4%
same,"viability, T/C",[15],25.1%
same,"viability, T/C",[16],8.52%
same,"viability, T/C",[17],0.35%
same,"viability, T/C",[18],2.33%
same,"viability, T/C",[19],67.7%
same,"viability, T/C",[20],32%
same,"viability, T/C",[21],20%
same,"viability, T/C",[22],7.54%
same,"viability, T/C",[23],0.39%
same,"viability, T/C",[24],2.51%
same,"viability, T/C",[25],17.2%
same,"viability, T/C",[26],12.3%
same,"viability, T/C",[27],4.34%
same,"viability, T/C",[28],2.57%
same,"viability, T/C",[29],0.34%
same,"viability, T/C",[30],1.2%
same,"viability, T/C",[31],1.64%
same,"viability, T/C",[32],1.76%
same,"viability, T/C",[33],2.1%
same,"viability, T/C",[34],1.15%
same,"viability, T/C",[35],0.87%
same,"viability, T/C",[36],0.81%
CC1COCCN1c1cc(-c2ccnn2C)c2ccnc(-c3ccn[nH]3)c2n1 (stereo not drawn) + Cc1cnc(CNC(=O)c2c(=O)c3ccc(N4CCCN(C)CC4)nc3n3c2sc2ccccc23)cn1,IC50,second compound 0.0316 µM,< 31.6 nM
same,IC50,second compound 0.1 µM,< 31.6 nM
same,IC50,second compound 0.316 µM,< 31.6 nM
same,IC50,second compound 1 µM,< 31.6 nM
same,IC50,second compound 3.16 µM,< 31.6 nM
same,IC50,second compound 10 µM,< 31.6 nM
same,"viability, T/C",[1],7.27%
same,"viability, T/C",[2],3%
same,"viability, T/C",[3],3.14%
same,"viability, T/C",[4],2.98%
same,"viability, T/C",[5],4.32%
same,"viability, T/C",[6],6.71%
same,"viability, T/C",[7],7.98%
same,"viability, T/C",[8],3.24%
same,"viability, T/C",[9],2.68%
same,"viability, T/C",[10],3.6%
same,"viability, T/C",[11],4.73%
same,"viability, T/C",[12],6.8%
same,"viability, T/C",[13],6.5%
same,"viability, T/C",[14],4.72%
same,"viability, T/C",[15],4.23%
same,"viability, T/C",[16],4.64%
same,"viability, T/C",[17],5.38%
same,"viability, T/C",[18],6.91%
same,"viability, T/C",[19],7.32%
same,"viability, T/C",[20],5.67%
same,"viability, T/C",[21],4.04%
same,"viability, T/C",[22],5.5%
same,"viability, T/C",[23],6.49%
same,"viability, T/C",[24],7.5%
same,"viability, T/C",[25],0.41%
same,"viability, T/C",[26],0.9%
same,"viability, T/C",[27],0.43%
same,"viability, T/C",[28],5.3%
same,"viability, T/C",[29],6.82%
same,"viability, T/C",[30],6.13%
same,"viability, T/C",[31],0.03%
same,"viability, T/C",[32],0.1%
same,"viability, T/C",[33],0.12%
same,"viability, T/C",[34],0.06%
same,"viability, T/C",[35],0.1%
same,"viability, T/C",[36],0.11%
